Results published in patent US20230277491A1, “PHARMACEUTICAL COMBINATION COMPRISING GLYCOLIC ACID AND L-ALANINE” (priority 2020, published 2023).

How the values were obtained:
dopaminergic neurons = experiment: Survival of dopaminergic neurons with paraquat 12.5 μM challenge (Example 5, FIGS. 19, 20); assay type: cell-based, mouse; conditions: for number of TH positive neurons normalized to the control treatment: FIG. 19
Protocol: Dopaminergic neurons were isolated and plated at a concentration of 1.000.000 cells/ml (100 μl/well) in a 96 well plate and cultured in medium with one or more of the various factors indicated, as described in the examples below. The survival of dopaminergic neurons in the presence and absence of various agents of the invention, either with or without paraquat challenge, is shown by the number of TH positive neurons normalized to the control treatment.
Dopaminergic neurons were isolated and plated at a concentration of 1.000.000 cells/ml (100 μl/well) in a 96 well plate. After 3-4 hours incubation at 37° C., 20 μl of medium was removed from each well. (VF=80 μl). Changes in medium and start point of the treatment were on the following day in vitro (DIV). The following protocol was employed to assess the survival of dopaminergic neurons in the presence and absence of various agents of the inventive combination, either with or without paraquat challenge. • DIV.1: Change half of medium N2 (40 μl) with fresh medium N2. • DIV.3: Change half of the medium and start with medium (control) or with medium A containing PB (0.15 mM) and TUDCA (0.5 mM), or with Medium A containing GA (normally 1 mM, 3 mM, or 10 mM) or with Medium A containing GA (1 mM or 3 mM) and PB (0.15 mM) or with Medium A containing GA (5 mM) and TUDCA (0.5 mM) or with Medium A containing PB (0.15 mM). Medium A is N2 medium but without FBS and N2-Supplement. • DIV.5: Second round of control or treatment with different treatments. Half of the medium (40 μl) was replaced by fresh medium A with the different agents. • DIV.7: Paraquat 12.5 μM treatment starts alone or in combination with the treatments explained above. Half of the medium (40 μl) was replaced by fresh medium A with the different treatment combinations or without (control). • DIV.9: Second day of treatment with Paraquat (PQ) 12.5 μM in addition to the other treatments as explained above. • DIV.11: Fixation 2% of PFA during 20 min at 37° C. or overnight at 4° C.
The effect of the different treatments on dopaminergic neurons survival upon exposure to paraquat was assessed through of TH+ neurons after treatment. Briefly, neurons were fixed using 2% paraformaldehyde for immunocytochemical analysis after treatment. Dopaminergic TH^+ neurons per well were identified and counted using an inverted fluorescence microscope (Olympus) under a 20× objective.

cortical neurons = experiment: Calcium imaging on primary cortical neurons (SOCE, glutamate-triggered action potential); assay type: cell-based, mouse; conditions: FIG. 15
Protocol: GA enhances SOCE and calcium influx during glutamate-triggered action potentials. Fluorescent microscopy images in a show the effect of calcium, glutamate and ionomycin on intracellular calcium in Fluo-4 AM charged cortical neurons at different time points.
Primary cortical neuronal cell cultures were prepared from E15.5 embryos. Briefly, brain cortex from E15.5 pregnant wild type C57Bl/6J or PARK-7^−/− mice were dissected and placed in cold HBSS without Ca2+ and Mg2+(Sigma Aldrich H6648, Germany, EU). Once freed from all other cerebral structures, cortex were placed in an empty petri dish, sliced with the help of a scalpel and trypsinized using a 1:1 mixture of Trypsin (Gibco 25200-056):HBSS at 37° C. for 7 min. The samples were then centrifuged for 4 min. at 800 rpm and the supernatant was replaced with plating medium (89% Neurobasal A, 8.9% FBS, 0.9% L-glutamine, 0.9% N2 supplement and 0.4% P/S). […]
Variations in the Fluo-4 AM fluorescence during Ca^2+ and/or glutamate addition were analyzed using FIJI Image Analysis Freeware. The ROIs were determined using the standard deviation function for the stack of images before and after the addition of 1.8 mM CaCl2 (for changes in intracellular Ca^2+) or before and after the addition of glutamate. […] Once all ROIs were identified and selected, the MFI of each ROI for each time-point was measured with the measure function of the program to generate a matrix with the raw MFI values for each ROI for each time point. […] To determine the effect of GA and DL on Ca^2+ influx after CaCl2 addition and after glutamate addition, all ROIs where normalized using a max-min normalization as previously described: ([Ca^2+]Ca—[Ca^2+]t0/([Ca^2+]ionomycine-[Ca^2+]t0) Once the new matrix with the normalized values was generated, we determined the area under the curve (AUC) in excel using the formula: (Y1+Y2)/2*(X2−X1). The AUC was then obtained as the sum of all the generated values.

patients with ALS = experiment: Individualised clinical trials in ALS patients: therapeutic effect (creatine kinase, gripping force, muscle strength); conditions: human patients, in some cases
Protocol: Gripping force measured in kilograms with the help of a Digital Hand Dynamometer once a week to every two weeks.
Evolution of the muscle strength on the right arm was measured once a week to every two weeks using the Janda Muscle Strength Scale.
Patients with ALS were recruited for the study and agreed to all legal regulations surrounding the curative attempt. Potential side effects were closely monitored. Liver and kidney values were checked once a week (1 day after dosing), in order to monitor whether any unwanted side effects were observed. To test the therapeutic effect, the evolution of the ALS score and strength evolution were measured over time.
All patients also received 6 grams of L-Alanine per day.
The above-mentioned treatment regime was conducted in 4 patients, either with FUS, TARDBP or SOD-1 mutations underlying their ALS. […] The patients were treated between 4 months and 17 months.

Compound: O=C(O)CO [GA, 2-hydroxyethanoic acid]
- number of TH positive neurons normalized to the control treatment (dopaminergic neurons; PQ 12.5 μM + 1 mM GA): 0.65
- number of TH positive neurons normalized to the control treatment (dopaminergic neurons; PQ 12.5 μM + 3 mM GA): 0.71
- survival of dopaminergic neurons (rescue) (dopaminergic neurons; PQ 12.5 μM + 5 mM GA alone): certain rescue
- intracellular calcium during the glutamate-triggered action potential (cortical neurons; 2.5 mM GA): higher increases in intracellular calcium during the action potential
- storage operated calcium entry (SOCE) (cortical neurons; 2.5 mM GA, after addition of calcium): increased storage operated calcium entry (SOCE)
- calcium transients (cortical neurons): bigger calcium transients
- GA dose at which efficacious doses were first observed (patients with ALS): above 70 mg/kg
